Data as given in patent publication US20230286970A1, “NOVEL OXADIAZOLE-BASED SELECTIVE HDAC6 INHIBITORS” (ITALFARMACO S.P.A., priority 2020, published 2023).
pIC50: −log10 of the molar value.

Legend:
recombinant human HDAC6 = recombinant human HDAC6 (Homo sapiens (Human), UniProt Q9UBN7); test: Enzymatic screening, HDAC6 inhibition (fluorogenic FdL_G substrate); type: biochemical
Procedure, shortened: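 Enzyme was preincubated with compound (8 doses, triplicate, 1% DMSO) in 25 mM Tris-HCl pH 8, 130 mM NaCl, 0.05% Tween-20, 10% glycerol, with BSA. A FLUOR DE LYS-Green substrate was then added, and fluorescence was read after developer plus 2 μM TSA.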

recombinant human HDAC1 = recombinant human HDAC1 (Homo sapiens (Human), UniProt Q13547); test: Enzymatic screening, HDAC1 inhibition (fluorogenic FdL_G substrate); type: biochemical
Procedure, shortened: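 Recombinant human HDAC1 inhibition was measured fluorometrically using the FLUOR DE LYS-Green (FdL_G) substrate. Compounds at 8 doses (1% DMSO final) in Tris-HCl pH 8 buffer with NaCl, Tween-20 and glycerol were preincubated in triplicate with enzyme and 1 mg/mL BSA, then given substrate. Developer I plus 2 μM TSA was added, and fluorescence read after 25 minutes in the dark.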

Sequence of recombinant human HDAC6 (Q9UBN7 whole entry): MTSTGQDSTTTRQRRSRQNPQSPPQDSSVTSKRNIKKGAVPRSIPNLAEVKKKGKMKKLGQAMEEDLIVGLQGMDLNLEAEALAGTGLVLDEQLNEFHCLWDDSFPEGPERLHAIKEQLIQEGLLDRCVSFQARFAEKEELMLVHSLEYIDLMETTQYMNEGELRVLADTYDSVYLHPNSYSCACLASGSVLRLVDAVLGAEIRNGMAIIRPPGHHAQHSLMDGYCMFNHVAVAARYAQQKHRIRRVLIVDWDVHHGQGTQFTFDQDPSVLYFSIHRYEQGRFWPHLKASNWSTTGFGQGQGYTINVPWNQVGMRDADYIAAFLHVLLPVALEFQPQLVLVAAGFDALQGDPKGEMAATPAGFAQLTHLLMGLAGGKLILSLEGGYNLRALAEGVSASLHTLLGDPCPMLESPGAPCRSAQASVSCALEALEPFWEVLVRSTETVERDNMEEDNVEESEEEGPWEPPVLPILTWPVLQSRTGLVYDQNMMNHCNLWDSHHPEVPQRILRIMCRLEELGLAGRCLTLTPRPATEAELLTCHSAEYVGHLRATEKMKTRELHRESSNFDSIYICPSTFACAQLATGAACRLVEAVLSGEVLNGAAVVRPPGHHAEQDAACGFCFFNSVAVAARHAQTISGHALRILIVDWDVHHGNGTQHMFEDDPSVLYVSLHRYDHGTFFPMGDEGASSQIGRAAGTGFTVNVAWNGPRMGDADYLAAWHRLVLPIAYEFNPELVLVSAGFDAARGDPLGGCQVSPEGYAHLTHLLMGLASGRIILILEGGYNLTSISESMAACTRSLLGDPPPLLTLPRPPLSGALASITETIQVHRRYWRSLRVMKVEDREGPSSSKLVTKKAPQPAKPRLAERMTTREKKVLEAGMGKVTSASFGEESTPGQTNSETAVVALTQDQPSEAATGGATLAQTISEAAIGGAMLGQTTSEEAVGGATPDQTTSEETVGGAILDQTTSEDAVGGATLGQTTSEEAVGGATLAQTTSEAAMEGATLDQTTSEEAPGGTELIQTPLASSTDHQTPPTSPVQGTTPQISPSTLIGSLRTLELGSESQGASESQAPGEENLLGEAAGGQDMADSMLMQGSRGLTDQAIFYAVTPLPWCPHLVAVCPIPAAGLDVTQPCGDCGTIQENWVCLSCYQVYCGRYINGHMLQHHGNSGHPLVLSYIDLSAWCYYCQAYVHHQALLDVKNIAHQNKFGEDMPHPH
Sequence of recombinant human HDAC1 (Q13547 whole entry): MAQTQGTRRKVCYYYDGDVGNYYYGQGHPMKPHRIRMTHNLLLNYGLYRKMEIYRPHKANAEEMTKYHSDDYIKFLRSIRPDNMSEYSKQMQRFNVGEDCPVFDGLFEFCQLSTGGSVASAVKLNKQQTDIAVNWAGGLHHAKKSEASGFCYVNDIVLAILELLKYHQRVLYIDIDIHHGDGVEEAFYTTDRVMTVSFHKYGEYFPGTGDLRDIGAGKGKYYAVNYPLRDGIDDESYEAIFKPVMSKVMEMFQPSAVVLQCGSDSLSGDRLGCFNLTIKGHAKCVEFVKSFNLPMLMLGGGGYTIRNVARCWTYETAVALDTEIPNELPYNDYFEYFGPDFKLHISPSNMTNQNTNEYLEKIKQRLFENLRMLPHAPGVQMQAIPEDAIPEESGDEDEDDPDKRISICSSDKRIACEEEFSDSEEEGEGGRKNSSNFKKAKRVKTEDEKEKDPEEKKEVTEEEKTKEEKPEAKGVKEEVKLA

SMILES | pIC50 (recombinant human HDAC6) | pIC50 (recombinant human HDAC1)
FC(F)c1nnc(-c2ccc(Cn3nnc(-c4cccc(-c5cnc(N6CCOCC6)s5)c4)n3)nc2)o1 [compound 130, 4-(5-(3-(2-((5-(5-(difluoromethyl)-1,3,4-oxadiazol-2-yl)pyridin-2-yl)methyl)-2H-tetrazol-5-yl)phenyl)thiazol-2-yl)morpholine] | 7.30 | < 3.70
Nc1ccc(-c2cn(C(CCCN3CCCCC3)c3ccc(-c4nnc(C(F)F)o4)cc3)nn2)cn1 (stereo not shown) [compound 303, 5-[1-[1-[4-[5-(difluoromethyl)-1,3,4-oxadiazol-2-yl]phenyl]-4-piperidin-1-ylbutyl]triazol-4-yl]pyridin-2-amine] | 7.21 | < 3.00
O=C1Nc2cc(-c3cn(Cc4ccc(-c5nnc(C(F)F)o5)cc4)nn3)ccc2C12CCNCC2 [compound 161, 6-(1-(4-(5-(difluoromethyl)-1,3,4-oxadiazol-2-yl)benzyl)-1H-1,2,3-triazol-4-yl)spiro[indoline-3,4′-piperidin]-2-one] | 7.12 | < 3.70
CCC[C@@H](c1ccc(-c2nnc(C(F)F)o2)cc1)n1cc(-c2cccc(NC(=O)N3CCOCC3)c2)nn1 (stereo in doubt) [compound 205, N-(3-(1-(1-(4-(5-(difluoromethyl)-1,3,4-oxadiazol-2-yl)phenyl)butyl)-1H-1,2,3-triazol-4-yl)phenyl)morpholine-4-carboxamide] | 6.91 | < 3.70
Nc1cccc(-c2cn(Cc3c(F)cc(-c4nnc(C(F)F)o4)cc3F)nn2)c1 [compound 297, 3-(1-(4-(5-(difluoromethyl)-1,3,4-oxadiazol-2-yl)-2,6-difluorobenzyl)-1H-1,2,3-triazol-4-yl)aniline] | 7.43 | 4.19
CC(c1ccc(-c2nnc(C(F)F)o2)c(F)c1)n1cc(-c2cccc(NC(=O)N3CCOCC3)c2)nn1 (stereo not shown) [compound 189, N-(3-(1-(1-(4-(5-(difluoromethyl)-1,3,4-oxadiazol-2-yl)-3-fluorophenyl)ethyl)-1H-1,2,3-triazol-4-yl)phenyl)morpholine-4-carboxamide] | 7.00 | < 3.70
Nc1nc2cc(-c3cnn(Cc4ccc(-c5nnc(C(F)F)o5)cc4)c3)ccc2[nH]1 [compound 332, 5-[1-[[4-[5-(difluoromethyl)-1,3,4-oxadiazol-2-yl]phenyl]methyl]pyrazol-4-yl]-1H-benzimidazol-2-amine] | 7.17 | < 3.00
Cn1c(Sc2c(F)cc(-c3nnc(C(F)F)o3)cc2F)nnc1-c1ccc(N)nc1 [compound 284, 5-(5-((4-(5-(difluoromethyl)-1,3,4-oxadiazol-2-yl)-2,6-difluorophenyl)thio)-4-methyl-4H-1,2,4-triazol-3-yl)pyridin-2-amine] | 6.49 | < 3.70
CN(Cc1ccc(-c2nc(Cc3ccc(-c4nnc(C(F)F)o4)cc3)no2)cc1)C(=O)C(F)F [compound 259, N-(4-(3-(4-(5-(difluoromethyl)-1,3,4-oxadiazol-2-yl)benzyl)-1,2,4-oxadiazol-5-yl)benzyl)-2,2-difluoro-N-methylacetamide] | 6.36 | < 3.70
CCNc1ncc2cc(-c3cn(Cc4cc(F)c(-c5nnc(C(F)F)o5)cc4F)nn3)ccc2n1 [compound 394, 6-[1-({4-[5-(difluoromethyl)-1,3,4-oxadiazol-2-yl]-2,5-difluorophenyl}methyl)-1H-1,2,3-triazol-4-yl]-N-ethylquinazolin-2-amine] | 6.58 | 3.00
CC(=O)N(Cc1ccco1)c1cccc(-c2cn(Cc3c(F)cc(-c4nnc(C(F)F)o4)cc3F)nn2)c1 [compound 183, N-(3-(1-(4-(5-(difluoromethyl)-1,3,4-oxadiazol-2-yl)-2,6-difluorobenzyl)-1H-1,2,3-triazol-4-yl)phenyl)-N-(furan-2-ylmethyl)acetamide] | 7.03 | < 3.70
